Experiment [1] concerns the target T1, GABAA2 receptors (α2, β3, γ2 receptor subunits transfected into Sf9 cells) (Homo sapiens, UniProt P18507+P47869).
T1 construct: host or cells: Sf9 cells (membranes)
The experiment is described as follows: GABAA2 Binding Method ([3H]-Flunitrazepam displacement). The settings on record: [3H]-Flunitrazepam ~2 nM, α2β3γ2 Sf9 membranes, 1 hr at 4° C. Summed up:
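Displacement of [3H]-flunitrazepam (~2 nM in assay) from recombinant human α2β3γ2 receptors in Sf9 membranes; 1 h incubation at 4 °C, harvest by filtration. Values reported as percent of control, IC50 and Ki.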

Another experiment addresses T2, GABAA receptor α1β2γ2 (Homo sapiens, UniProt P14867+P18507).
T2 construct: expressed in transfected cells; host or cells: Xenopus laevis oocytes injected with cRNA
Kind of experiment: Two-electrode voltage-clamp potentiation of GABA EC10 current in Xenopus oocytes, GABAA1. The format is cell-based. The following applies: percentage potentiation of GABA EC10 current divided by that of diazepam. The procedure, abridged:
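Human GABAA receptors expressed in Xenopus oocytes by cRNA injection (α:β:γ molar ratio ~1:1:10 for α1β2γ2, 1:1:1 for α2β3γ2), recorded 2-10 days later by two-electrode voltage clamp at −60 mV in ND-96, pH 7.5. Modulator preapplied 30 s before GABA at per-oocyte EC10. Peak-current percent potentiation over GABA alone, normalised to diazepam.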
Background: In two-electrode clamp one electrode senses voltage and the other passes current.

T1 sequence (P47869 29-451): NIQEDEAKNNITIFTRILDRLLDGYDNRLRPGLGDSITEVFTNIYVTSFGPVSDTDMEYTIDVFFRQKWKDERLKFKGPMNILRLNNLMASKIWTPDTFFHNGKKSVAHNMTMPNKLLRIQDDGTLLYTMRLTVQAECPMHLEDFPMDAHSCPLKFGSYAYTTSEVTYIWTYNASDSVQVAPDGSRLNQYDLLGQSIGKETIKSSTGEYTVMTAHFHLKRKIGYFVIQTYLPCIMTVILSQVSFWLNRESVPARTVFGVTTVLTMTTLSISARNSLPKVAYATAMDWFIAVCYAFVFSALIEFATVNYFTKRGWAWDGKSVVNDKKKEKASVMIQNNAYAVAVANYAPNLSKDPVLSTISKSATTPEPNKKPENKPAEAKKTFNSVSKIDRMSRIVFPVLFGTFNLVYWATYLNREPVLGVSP
T1 sequence (P28472 26-473 partner): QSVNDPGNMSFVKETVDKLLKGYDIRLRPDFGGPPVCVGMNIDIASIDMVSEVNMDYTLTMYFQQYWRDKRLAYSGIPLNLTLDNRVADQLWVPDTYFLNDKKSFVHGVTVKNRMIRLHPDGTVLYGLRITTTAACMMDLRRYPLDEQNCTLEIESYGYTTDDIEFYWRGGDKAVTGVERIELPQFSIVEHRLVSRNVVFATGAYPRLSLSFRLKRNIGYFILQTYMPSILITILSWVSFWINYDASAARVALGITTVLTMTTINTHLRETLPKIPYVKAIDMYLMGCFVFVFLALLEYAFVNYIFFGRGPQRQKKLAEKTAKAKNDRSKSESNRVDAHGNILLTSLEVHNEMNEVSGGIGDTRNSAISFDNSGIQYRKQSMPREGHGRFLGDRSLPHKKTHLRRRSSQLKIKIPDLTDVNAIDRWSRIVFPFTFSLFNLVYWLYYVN
T1 sequence (P18507 40-475): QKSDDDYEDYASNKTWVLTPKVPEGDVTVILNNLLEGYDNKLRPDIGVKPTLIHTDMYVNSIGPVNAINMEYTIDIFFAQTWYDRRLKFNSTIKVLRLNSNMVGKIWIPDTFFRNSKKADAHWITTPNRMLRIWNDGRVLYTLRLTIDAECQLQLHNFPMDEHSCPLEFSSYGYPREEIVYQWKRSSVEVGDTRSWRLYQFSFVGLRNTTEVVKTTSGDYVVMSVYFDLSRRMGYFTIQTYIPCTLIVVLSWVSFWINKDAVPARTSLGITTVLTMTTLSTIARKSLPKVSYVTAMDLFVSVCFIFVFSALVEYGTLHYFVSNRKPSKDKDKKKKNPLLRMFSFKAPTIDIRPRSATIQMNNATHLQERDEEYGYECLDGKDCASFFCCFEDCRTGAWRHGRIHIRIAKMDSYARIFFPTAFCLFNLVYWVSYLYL
T2 sequence (P14867 28-456): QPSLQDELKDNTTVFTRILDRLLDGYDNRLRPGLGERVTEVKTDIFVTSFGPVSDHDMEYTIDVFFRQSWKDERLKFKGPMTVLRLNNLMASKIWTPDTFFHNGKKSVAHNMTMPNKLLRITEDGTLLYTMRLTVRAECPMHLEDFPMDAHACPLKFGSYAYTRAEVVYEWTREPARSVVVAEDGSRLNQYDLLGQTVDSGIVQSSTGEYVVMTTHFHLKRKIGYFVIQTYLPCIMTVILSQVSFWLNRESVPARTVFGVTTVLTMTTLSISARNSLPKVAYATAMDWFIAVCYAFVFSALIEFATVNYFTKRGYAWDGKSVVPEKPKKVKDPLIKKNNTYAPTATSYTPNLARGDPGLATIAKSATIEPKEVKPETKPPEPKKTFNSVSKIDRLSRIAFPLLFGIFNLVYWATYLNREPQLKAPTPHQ
T2 sequence (P47870 25-512 partner limits assumed): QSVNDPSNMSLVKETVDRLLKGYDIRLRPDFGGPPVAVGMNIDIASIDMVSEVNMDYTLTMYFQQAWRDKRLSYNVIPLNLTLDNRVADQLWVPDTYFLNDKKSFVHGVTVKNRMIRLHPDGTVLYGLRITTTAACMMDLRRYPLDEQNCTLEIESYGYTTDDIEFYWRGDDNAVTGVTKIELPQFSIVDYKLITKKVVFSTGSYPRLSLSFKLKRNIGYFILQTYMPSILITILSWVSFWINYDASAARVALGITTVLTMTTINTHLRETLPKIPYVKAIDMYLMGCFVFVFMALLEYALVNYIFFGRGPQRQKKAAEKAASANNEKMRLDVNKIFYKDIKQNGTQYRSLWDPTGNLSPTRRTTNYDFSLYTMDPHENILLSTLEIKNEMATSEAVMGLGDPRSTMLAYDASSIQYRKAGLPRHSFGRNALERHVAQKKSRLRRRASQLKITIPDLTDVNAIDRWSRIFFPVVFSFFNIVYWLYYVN
T2 sequence (P18507 40-475): as the sequence (P18507 40-475) above

With `CCCN1Cc2nc3c(-c4ccc(OC)cc4F)cccc3c(N)c2C1=O` [9-amino-5-(2-fluoro-4-methoxyphenyl)-2-propyl-2,3-dihydro-1H-pyrrolo[3,4-b]quinolin-1-one], in experiment [1], the affinity corresponds to a Ki of 0.0128 µM. Moreover, the “Relative Potentiation for GABAA1” value on GABAA receptor α1β2γ2 came to 0.12.

As for `CCCN1Cc2nc3c(-c4cc(C(F)(F)F)ccc4F)cccc3c(N)c2C1=O` [9-amino-5-(2-fluoro-5-(trifluoromethyl)phenyl)-2-propyl-2,3-dihydro-1H-pyrrolo[3,4-b]quinolin-1-one], in experiment [1], the affinity, expressed as Ki, was 0.024 µM. Further, the “Relative Potentiation for GABAA1” value at GABAA receptor α1β2γ2 is 0.55.

Consider `CCCN1Cc2nc3c(-c4cc(F)ncc4OC)cccc3c(N)c2C1=O` [9-amino-5-(2-fluoro-5-methoxypyridin-4-yl)-2-propyl-2,3-dihydro-1H-pyrrolo[3,4-b]quinolin-1-one], for which, in experiment [1], the affinity corresponds to a Ki of 0.00808 µM. In addition, at GABAA receptor α1β2γ2, the “Relative Potentiation for GABAA1” value came to 0.6.

Take `CCCN1Cc2nc3c(-c4cc(C)ccc4F)cccc3c(N)c2C1=O` [9-amino-5-(2-fluoro-5-methylphenyl)-2-propyl-2,3-dihydro-1H-pyrrolo[3,4-b]quinolin-1-one]: the affinity in experiment [1], expressed as Ki, was 0.00677 µM. Moreover, the “Relative Potentiation for GABAA1” value at GABAA receptor α1β2γ2 was 0.27.

Take `CCCN1Cc2nc3c(-c4cc(C)cnc4F)cccc3c(N)c2C1=O` [9-amino-5-(2-fluoro-5-methylpyridin-3-yl)-2-propyl-2,3-dihydro-1H-pyrrolo[3,4-b]quinolin-1-one]: affinity in experiment [1] was put at a Ki of 0.00755 µM. For the same compound, the “Relative Potentiation for GABAA1” value at GABAA receptor α1β2γ2 came out at 0.33.

The compound `COc1ccc([C@@H](C)N2Cc3nc4c(-c5c(F)cccc5OC)cccc4c(N)c3C2=O)cc1` [9-amino-5-(2-fluoro-6-methoxyphenyl)-2-((R)-1-(4-methoxyphenyl)ethyl)-2,3-dihydro-1H-pyrrolo[3,4-b]quinolin-1-one] displayed a Ki in experiment [1] of 0.0209 µM. For the same compound, the “Relative Potentiation for GABAA1” value on GABAA receptor α1β2γ2 is on record as −0.008.

`CCCN1Cc2nc3c(-c4ccc(C)nc4OC)cccc3c(N)c2C1=O` [9-amino-5-(2-methoxy-6-methylpyridin-3-yl)-2-propyl-2,3-dihydro-1H-pyrrolo[3,4-b]quinolin-1-one] came in with a Ki in experiment [1] of 0.024 µM. Besides, the “Relative Potentiation for GABAA1” value on GABAA receptor α1β2γ2 was found to be 1.1.

As for `CCCN1Cc2nc3c(-c4ccc(OC)c(OC)c4)cccc3c(N)c2C1=O` [9-amino-5-(3,4-dimethoxyphenyl)-2-propyl-2,3-dihydro-1H-pyrrolo[3,4-b]quinolin-1-one], in experiment [1], the affinity, expressed as Ki, was 0.0123 µM. The “Relative Potentiation for GABAA1” value on GABAA receptor α1β2γ2 is given as 1.1.

Consider `COc1ccc(CN2Cc3nc4c(-c5cc(F)cc(F)c5)cccc4c(N)c3C2=O)cc1OC` [9-amino-5-(3,5-difluorophenyl)-2-(3,4-dimethoxybenzyl)-2,3-dihydro-1H-pyrrolo[3,4-b]quinolin-1-one], for which the Ki in experiment [1] turned out to be 0.0153 µM. For the same compound, the “Relative Potentiation for GABAA1” value at GABAA receptor α1β2γ2 amounted to 0.24.

In turn, `CCCN1Cc2nc3c(-c4cc(OC)cc(OC)c4)cccc3c(N)c2C1=O` [9-amino-5-(3,5-dimethoxyphenyl)-2-propyl-2,3-dihydro-1H-pyrrolo[3,4-b]quinolin-1-one] showed an inhibitory constant (Ki) in experiment [1] of 0.0467 µM. For the same compound, at GABAA receptor α1β2γ2, the “Relative Potentiation for GABAA1” value amounted to 0.6.

Compound `CCN1Cc2nc3c(-c4cc(C)cc(C)c4)cccc3c(N)c2C1=O` [9-amino-5-(3,5-dimethylphenyl)-2-ethyl-2,3-dihydro-1H-pyrrolo[3,4-b]quinolin-1-one] yielded a Ki in experiment [1] of 0.0142 µM. Moreover, at GABAA receptor α1β2γ2, the “Relative Potentiation for GABAA1” value is given as 0.34.

Turning to `CCCN1Cc2nc3c(-c4cccc(N(C)C)c4)cccc3c(N)c2C1=O` [9-amino-5-(3-(dimethylamino)phenyl)-2-propyl-2,3-dihydro-1H-pyrrolo[3,4-b]quinolin-1-one], the inhibition constant (Ki) in experiment [1] was 0.0374 µM. For the same compound, the “Relative Potentiation for GABAA1” value on GABAA receptor α1β2γ2 is 0.27.

Take `COc1ccc(CN2Cc3nc4c(-c5ccc(F)cc5OC)cccc4c(N)c3C2=O)cc1` [9-amino-5-(4-fluoro-2-methoxyphenyl)-2-(4-methoxybenzyl)-2,3-dihydro-1H-pyrrolo[3,4-b]quinolin-1-one]: the Ki in experiment [1] was determined as 0.0312 µM. In addition, the “Relative Potentiation for GABAA1” value at GABAA receptor α1β2γ2 is 0.22.

For the compound `CCCN1Cc2nc3c(-c4ccc(OC)cc4C(F)(F)F)cccc3c(N)c2C1=O` [9-amino-5-(4-methoxy-2-(trifluoromethyl)phenyl)-2-propyl-2,3-dihydro-1H-pyrrolo[3,4-b]quinolin-1-one], the inhibition constant (Ki) in experiment [1] was 0.0104 µM. In addition, the “Relative Potentiation for GABAA1” value at GABAA receptor α1β2γ2 amounted to 0.25.

Take `CCCN1Cc2nc3c(-c4cc(Br)cnc4OC)cccc3c(N)c2C1=O` [9-amino-5-(5-bromo-2-methoxypyridin-3-yl)-2-propyl-2,3-dihydro-1H-pyrrolo[3,4-b]quinolin-1-one]: the Ki in experiment [1] came out at 0.0106 µM. For the same compound, the “Relative Potentiation for GABAA1” value at GABAA receptor α1β2γ2 is 0.53.

`COc1ccc(Cl)cc1-c1cccc2c(N)c3c(nc12)CN(C1CC1)C3=O` [9-amino-5-(5-chloro-2-methoxyphenyl)-2-cyclopropyl-2,3-dihydro-1H-pyrrolo[3,4-b]quinolin-1-one] registered a Ki in experiment [1] of 0.00895 µM. Also, at GABAA receptor α1β2γ2, the “Relative Potentiation for GABAA1” value is recorded as 0.19.

`CCCN1Cc2nc3c(-c4cc(Cl)cnc4OC)cccc3c(N)c2C1=O` [9-amino-5-(5-chloro-2-methoxypyridin-3-yl)-2-propyl-2,3-dihydro-1H-pyrrolo[3,4-b]quinolin-1-one] yielded a Ki in experiment [1] of 0.0215 µM. Also, the “Relative Potentiation for GABAA1” value at GABAA receptor α1β2γ2 is reported as 0.49.

As to `COc1ccc(CN2Cc3nc4c(-c5cc(F)ccc5OC)cccc4c(N)c3C2=O)cc1` [9-amino-5-(5-fluoro-2-methoxyphenyl)-2-(4-methoxybenzyl)-2,3-dihydro-1H-pyrrolo[3,4-b]quinolin-1-one], the inhibitory constant (Ki) in experiment [1] worked out at 0.0463 µM. In addition, at GABAA receptor α1β2γ2, the “Relative Potentiation for GABAA1” value is given as 0.39.

Regarding `COc1ccc(CN2Cc3nc4c(-c5cc(F)ccc5C)cccc4c(N)c3C2=O)cc1` [9-amino-5-(5-fluoro-2-methylphenyl)-2-(4-methoxybenzyl)-2,3-dihydro-1H-pyrrolo[3,4-b]quinolin-1-one], the inhibitory constant (Ki) in experiment [1] stood at 0.0258 µM. The “Relative Potentiation for GABAA1” value on GABAA receptor α1β2γ2 is listed as 0.22.

For `CCCN1Cc2nc3c(-c4cc(F)ccc4C)cccc3c(N)c2C1=O` [9-amino-5-(5-fluoro-2-methylphenyl)-2-propyl-2,3-dihydro-1H-pyrrolo[3,4-b]quinolin-1-one], affinity in experiment [1] was put at a Ki of 0.0063 µM. The “Relative Potentiation for GABAA1” value at GABAA receptor α1β2γ2 is reported as 0.29.

In experiment [1], `CCCN1Cc2nc3c(-c4cncc(OC)c4)cccc3c(N)c2C1=O` [9-amino-5-(5-methoxypyridin-3-yl)-2-propyl-2,3-dihydro-1H-pyrrolo[3,4-b]quinolin-1-one] yielded an inhibitory constant (Ki) of 0.063 µM. The “Relative Potentiation for GABAA1” value at GABAA receptor α1β2γ2 turned out to be 0.23.

`Cc1nc(Cl)ccc1-c1cccc2c(N)c3c(nc12)CN(C1CC1)C3=O` [9-amino-5-(6-chloro-2-methylpyridin-3-yl)-2-cyclopropyl-2,3-dihydro-1H-pyrrolo[3,4-b]quinolin-1-one] showed a Ki in experiment [1] of 0.028 µM. Also, the “Relative Potentiation for GABAA1” value on GABAA receptor α1β2γ2 stood at 0.16.

On to `CCCN1Cc2nc3c(-c4ccc(Cl)nc4C)cccc3c(N)c2C1=O` [9-amino-5-(6-chloro-2-methylpyridin-3-yl)-2-propyl-2,3-dihydro-1H-pyrrolo[3,4-b]quinolin-1-one], for which, in experiment [1], the affinity, expressed as Ki, was 0.0231 µM. At GABAA receptor α1β2γ2, the “Relative Potentiation for GABAA1” value came out at 1.1.

`CCCN1Cc2nc3c(-c4ccc(OC)nc4C)cccc3c(N)c2C1=O` [9-amino-5-(6-methoxy-2-methylpyridin-3-yl)-2-propyl-2,3-dihydro-1H-pyrrolo[3,4-b]quinolin-1-one] registered a Ki in experiment [1] of 0.0164 µM. Besides, the “Relative Potentiation for GABAA1” value at GABAA receptor α1β2γ2 is 0.29.

Broadly, the Ki is a measure of affinity in units of concentration, obtained from inhibition or displacement. Low readings indicate higher affinity, high ones lower affinity.
